# Reference: US5773236A, “Assay for glutathiane transferase using polyhaloaryl-substituted reporter molecules” (Molecule Probes, Inc., priority 1997, dated 1998)
# Assays:
# CRE BAG 2 cells [1] = experiment: Marker gene expression by flow cytometry, CRE BAG 2 (Example 62); type: cell-based; settings: 0.2 mM dye, 37° C., 30 minutes
# Experimental: (§1) NIH-3T3 and CRE BAG2 cells are maintained as in Example 61. A 10 mM stock solution of (((3 -(2-pentafluorobenzoyl)amino)ethyl)amino)carbonyl)-umbelliferyl β-D-galactopyranoside (Compound 37; Example 37) is prepared in DMF. A 10 mM stock solution of 4-chloromethylcoumarin β-D-galactopyranoside (CMCG; Molecular Probes #D-2921) is prepared in a 1:1 mixture of DMSO and water. NIH-3T3 and CRE BAG2 cells are trypsinized, washed with phosphate buffered saline (PBS), pH 7.2 and resuspended in D-MEM with 10% BCS. To separate 1 mL cell suspensions are added the dye stock solutions to obtain final concentrations of 0.2 mM dye. Incubation is carried out at 37° C. for 30 minutes. Cells are centrifuged to form a pellet, the supernatant is discarded and the cells are washed twice with PBS, pH 7.2 and suspended in the same buffer. Cells are analyzed by flow cytometry using a Becton-Dickinson FACS Vantage flow cytometer. […] However, CRE BAG 2 cells stained with the Compound 37 show fluorescence that is greater than 25-fold that shown by autofluorescent control cells. For the CRE BAG 2 cells stained with CMCG, the fluorescence intensity is only 8-fold greater than that of the autofluorescent control cells.
# NIH-3T3 cells = experiment: Marker gene expression by flow cytometry, NIH-3T3 (Example 62); type: cell-based; settings: 0.2 mM dye, 37° C., 30 minutes
# Experimental: as §1
# P3×63AG8 cells = experiment: Peptidase substrate in live cells, flow cytometry (Example 58); type: cell-based; settings: 1 μM, 37° C., 30 minutes
# Experimental: P3×63AG8 cells obtained from American Type Culture Collection Co., Rockville, Md. are used. They are grown in a humidified atmosphere of 5% CO2 in Dulbecco's modified Eagle's medium (D-MEM) supplemented with 10% calf serum, 50 μg/mL gentamycin, 300 μg/mL L-glutamine and 10 mM HEPES, pH 7.4. Compound 13-Arg (Prepared as in Examples 12 and 13) is dissolved at 1 mM in DMSO. The P3×63AG8 cells are trypsinized, washed with phosphate-buffered saline (PBS), pH 7.2 and resuspended in 1 mL of the same buffer. 1 μL of the stock reagent is added to 1 mL of the cell suspension to obtain a final concentration of 1 μM. Incubation is carried out at 37° C. for 30 minutes. Cells are centrifuged to form a pellet, the supernatant is discarded, the cells are washed twice with PBS, pH 7.2 and resuspended in 300 μL of the same buffer. Cells are analyzed by flow cytometry using the Becton-Dickinson FACS Vantage flow cytometer.
# CRE BAG 2 cells [2] = experiment: Peptidase substrates in live cells, fluorescence microscopy (Example 59); type: cell-based; settings: 1 μM, 0.5 μM or 0.1 μM, 37° C., 30 minutes
# Experimental: CRE BAG 2 cells obtained from American Type Culture Collection Co., Rockville, Md. are used. They are grown in a humidified atmosphere of 5% CO2 in D-MEM supplemented with 10% calf serum, 50 μg/mL gentamycin, 300 μg/mL L-glutamine and 10 mM HEPES, pH 7.4. 1 mM stock solutions of Compound 13-Leu (Example 13) and Compound 13-Arg substrate are prepared in DMSO. CRE BAG 2 cells are trypsinized, washed with phosphate-buffered saline, pH 7.2 and resuspended in 1 mL of the same buffer. 1 μL, 0.5 μL or 0.1 μL of the stock reagents is added to 1 mL of the cell suspension to obtain a final concentration of 1 μM, 0.5 μM or 0.1 μM. Incubation is carried out at 37° C. for 30 minutes. Cells are centrifuged to form a pellet, the supernatant is discarded and the cells are washed with PBS, pH 7.2 and suspended in the same buffer. Cells are mounted on slides and observed by fluorescence microscopy using filters optimized for fluorescein.
# [3] = system: glutathione transferase (GST); experiment: Reactivity with glutathione catalyzed by glutathione transferase, TLC (Example 50); type: biochemical
# Experimental: The suitability of Compound 1 (Example 1) and 5-(pentachlorobenzoylamino)fluorescein (Compound 48) as substrates for glutathione transferase (GST) in the presence of excess glutathione (GSH) is tested in vitro as follows: 5 mM GSH, 0.5 mM substrate (Compound 1 or Compound 48) and 20 micrograms GST (Sigma #G-6511, 70 units/mg) are combined in 0.1M phosphate buffer, pH 8.0, for 1 hour at 37° C. The reaction is terminated by spotting approximately 3 μL on silica gel TLC plates. The plate is developed using 1-butanol: methanol: water (3:1:1). […] Analysis of the reaction mixture by HPLC as in Example 52 confirms that the reaction product of Compound 1 with GSH is identical to the authentic Compound 1-GSH adduct as prepared in Example 45 (Compound 45).
# GST [4] = experiment: HPLC analysis of the in vitro reaction mixture (Example 52); type: biochemical; settings: with GST, absorbance at 500 nm
# Experimental: To determine whether a compound is a selective substrate for glutathione transferase, a 2 mM ethanol stock solution of a polyhalogenated derivative (for example the series of butylbenzamides described in Example 49), reduced glutathione (phosphate buffer stock solution, 5 mM) and glutathione S-transferase (phosphate buffer stock solution, 1 unit/mL) are incubated at 25° C. in the mixture of 98% 0.1M K2 HPO4 -KH2 PO4 buffer (pH7.5) that contains 1 mM EDTA and 2% ethanol for 2 h. The reaction is then stopped by adding 10% H2 O2.
# Reaction mixtures with and without GST using Compound 1 as the substrate, are prepared as described in Example 48. The solutions are mixed overnight with three volumes of ethyl acetate followed by centrifugation at 15,000×g for 30 min to separate the organic and aqueous layers. HPLC analysis using a Rainin HPLC equipped with a C18, 5 μm, 100 Å, 4.6×250 mm MICROSORB-MV reverse phase column. Products are separated in 30 min with a gradient of 5% to 95% solvent B in Solvent A at a flow rate of 1 mL/min, where solvent A is 0.1M triethylammonium acetate, pH 7.0, and solvent B is acetonitrile (see FIG. 1). Products are detected by reading the absorbance at 500 nm. Peaks are identified and, if desired, quantitated by comparing retention times with authentic samples of the glutathione adduct of Compound 45 (Example 45).
# GSH in BPAE cell lysate = experiment: Determination of GSH in cell extracts (Example 56); type: biochemical, Bovine; settings: 0.2 mM Compound 1, 5 μg GST, 2 hours, 37° C.; FIG. 3
# Experimental: (§2) Cultures of BPAE cells are trypsinized, pelleted, washed once in PBS and resuspended in 200 μL of distilled water in numbers from 200 to 1,000,000. The cells are lysed by repeated freezing and thawing and spun for 10 min. in a microfuge to eliminate the insoluble particles from the lysate, which contains both GSH and GST.
# To 150 μL of the lysate are added 5.5 μL of 1.8M MOPS pH 7.5, Compound 1 at the final concentration of 0.2 mM, 5 μg GST and distilled water to obtain the final volume of 200 μL. The reaction mixtures are incubated for 2 hours at 37° C. and analyzed by TLC by spotting 2 μL of each sample and developing as described in Example 48. The spots corresponding to the product formed by the different amounts of cells, because of their endogenous GSH is quantitated on a plate scanner as described in Example 53. […] Quantitation of GSH can also be performed by separating the product from the reaction mixture by HPLC as in Example 52.
# [5] = Quantitation of GSH in enzymatic reactions, TLC (Example 55); type: biochemical; settings: 0.5 mM Compound 1, 10 μg/mL GST, limiting GSH, 1 hour, 37° C., UV hand lamp
# Experimental: (§3) A set of reactions as described in Example 48 are performed using limiting concentrations of GSH (0.1 μM-1 mM), to measure the range of sensitivity of the assay for quantitating GSH. Alternatively, the reaction is performed using excess GSH and limiting GST (0.1 μg/mL-20 μg/mL) to determine the suitability of the method to detect and quantitate glutathione transferase activity of isolated enzymes or of GST-fusion proteins.
# (§4) In one hour reactions at 37° C., using 0.5 mM Compound 1 (Example 1) as the substrate, 10 μg/mL GST and limiting GSH, the minimum amount of fluorescent Compound 1-GSH adduct (Compound 45) detectable by simple illumination with a long wavelength UV hand lamp corresponds to ~2-4 picomoles of GSH. When using excess GSH and variable amounts of GST, it is possible to detect by visible inspection the reaction product in solutions containing 5 μg/mL of enzyme spotted on TLC in 2 μL amounts: this spot corresponds to ~10 ng of GST. […] Quantitative measurement of the amount of product formed can be performed by either HPLC (Example 52), using a plate scanner (Example 53) or by extraction of the scraped silica gel spots into methanol or pH 8.0 buffer and measurement of the fluorescence against that of a series of dilutions of the authentic adduct (Example 45) in the same buffer using a fluorometer or microplate reader.
# [6] = system: glutathione transferase (endogenous GST in BPAE cell lysates); experiment: Determination of GST activity in cell extracts (Example 56); type: biochemical, Bovine
# Experimental: as §2
# The assay for the amount of GST activity present in cell lysates (endogenous GST) is performed using the same system as above with the exception that 5 mM GSH is added to the reaction mixture to ensure that there is a sufficient excess of GSH to saturate the enzyme. The reaction is incubated for one hour at 37° C. and 2 μL of each sample are spotted on TLC plates and developed as described in Example 48. Product formation is quantitated using a plate scanner as for GSH determination (as in Example 53). […] Similarly, this assay system can be used to quantitate GST-fusion proteins.
# β-galactosidase = experiment: Reactivity with thiol groups of proteins (Example 51); type: biochemical
# Experimental: To test the specificity of the Compound 1 reaction with GSH versus thiol-containing proteins, β-galactosidase (a protein that has several free thiols) is dissolved at 5 mg/mL in deoxygenated 0.1M phosphate, 0.1M NaCl, pH 7.5, and reacted under anaerobic conditions with 5-(pentafluorobenzoylamino)fluorescein diacetate (Compound 4, Example 3) or Compound 1 dissolved at 10 mg/mL in DMSO at a molar ratio of the reagent to protein of 15. This assay is performed both in the presence and absence of 30 mM N-ethyl maleimide (NEM) as an effective thiol-blocking reagent. The reactions are incubated at room temperature for 1 hour, stopped by the addition of hydroxylamine, pH 9 to a final concentration of 0.15M, and incubated for 2 more hours to hydrolyze the acetate groups. […] Consequently, no reaction of either Compound 4 or Compound 1 with β-galactosidase is detected under the described conditions.
# GST [7] = experiment: Quantitation of GST in enzymatic reactions, TLC (Example 55); type: biochemical; settings: excess GSH, 2 μL spotted on TLC
# Experimental: as §3, §4
structure (smiles),measurement,setting,value
"O=C(NCCNC(=O)c1cc2ccc(O[C@@H]3O[C@H](CO)[C@H](O)[C@H](O)[C@H]3O)cc2oc1=O)c1c(F)c(F)c(F)c(F)c1F [Compound 37, ((((3-(2-pentafluorobenzoyl)amino)ethyl)amino)carbonyl)umbelliferyl β-D-galactopyranoside]",fluorescence relative to autofluorescent control cells,CRE BAG 2 cells [1],greater than 25 fold
same,fluorescence versus autofluorescent cells,NIH-3T3 cells,do not show fluorescence greater than that observed for autofluorescent cells
N=C(N)NCCC[C@H](N)C(=O)Nc1ccc2c(c1)Oc1cc(NC(=O)c3c(F)c(F)c(F)c(F)c3F)ccc1C21OC(=O)c2ccccc21 (stereo partly drawn) [Compound 13-Arg],cell fluorescence (FL 1 channel),P3×63AG8 cells,fluorescence levels greater than the cell's autofluorescence
same,"staining of cells, fluorescence microscopy",CRE BAG 2 cells [2],punctate green fluorescence associated with organelles
"O=C1OC2(c3ccc(O)cc3Oc3cc(O)ccc32)c2ccc(NC(=O)c3c(F)c(F)c(F)c(F)c3F)cc21 [Compound 1, 5-(pentafluorobenzoylamino)fluorescein]",adduct formation with glutathione in presence of GST,"[3]; 5 mM GSH, 0.5 mM substrate, 20 micrograms GST, pH 8.0, 1 hour, 37° C.",forms a fluorescent adduct with glutathione
same,reaction in control without GST,[3]; GST omitted,very low or no reaction
same,products in aqueous layer by HPLC,GST [4],two major peaks with elution times corresponding to the Compound 45 and to the unreacted Compound 1
same,plot of fluorescence intensity of Compound 1-GSH adduct versus number of cells (GSH),GSH in BPAE cell lysate,good linearity
same,"minimum amount of adduct detectable, corresponding to GSH",[5],2-4 picomoles
same,usefulness for determination of GST activity in cell lysates,"[6]; 5 mM GSH, one hour, 37° C., FIG. 4",useful for the determination of the activity of GST activity in cells lysates
same,adduct formation in absence of enzyme,[6]; high concentration of both substrate and GSH,a trace amount of adduct forms
same,"fluorescent proteins formed, gel electrophoresis",β-galactosidase; molar ratio of reagent to protein 15,no fluorescent proteins are formed
same,"reaction with β-galactosidase, TLC","β-galactosidase; molar ratio of reagent to protein 15, pH 7.5, 1 hour, with and without 30 mM NEM",no reaction
same,amount of GST corresponding to detectable spot,GST [7],~ 10 ng
same,enzyme (GST) concentration detectable by visible inspection,"GST [7]; variable GST, 1 hour, 37° C.",5 µg/mL
